# Laboratory results from ChEMBL document CHEMBL4715911, “Quest for a potent antimalarial drug lead: Synthesis and evaluation of 6,7-dimethoxyquinazoline-2,4-diamines” (Bioorg Med Chem, 2021).
# Experiments:
# Type in all cases: functional
# Plasmodium berghei [1] = experiment: Antimalarial activity against Plasmodium berghei NK65 infected in ICR mouse assessed as reduction in parasitemia at 54.7 mg/kg, po qd for 4 days by Diff-Quik staining based microscopic method (reference value: 0%); conditions: 96 h, time 4 day
# Plasmodium berghei [2] = experiment: Antimalarial activity against Plasmodium berghei NK65 infected in ICR mouse assessed as mean survival days at 54.7 mg/kg, po for 4 days (reference value: 6.2 day); conditions: time 4 day
# Plasmodium berghei [3] = experiment: Antimalarial activity against Plasmodium berghei NK65 infected in ICR mouse assessed as reduction in parasitemia at 57.5 mg/kg, po qd for 4 days by Diff-Quik staining based microscopic method (reference value: 0%); conditions: 96 h, time 4 day
# Plasmodium berghei [4] = experiment: Antimalarial activity against Plasmodium berghei NK65 infected in ICR mouse assessed as animal mean survival days at 57.5 mg/kg, po qd for 4 days (reference value: 6.2 +/-0.5 day); conditions: time 4 day
# Plasmodium berghei [5] = experiment: Antimalarial activity against Plasmodium berghei NK65 infected in ICR mouse assessed as reduction in parasitemia at 115 mg/kg, po qd for 4 days by Diff-Quik staining based microscopic method (reference value: 0%); conditions: 96 h, time 4 day
# Plasmodium berghei [6] = experiment: Antimalarial activity against Plasmodium berghei NK65 infected in ICR mouse assessed as animal mean survival days at 115 mg/kg, po qd for 4 days (reference value: 6.2 +/- 0.5 day); conditions: time 4 day
# Plasmodium berghei [7] = experiment: Antimalarial activity against Plasmodium berghei NK65 infected in ICR mouse assessed as parasitemia at 115 mg/kg, po qd for 4 days by Diff-Quik staining based microscopic method (reference value: 28.4 +/- 10.2%); conditions: time 4 day
# Plasmodium berghei [8] = experiment: Antimalarial activity against Plasmodium berghei NK65 infected in ICR mouse assessed as parasitemia at 57.5 mg/kg, po qd for 4 days by Diff-Quik staining based microscopic method (reference value: 28.4 +/- 10.2%); conditions: time 4 day
# Plasmodium berghei [9] = experiment: Antimalarial activity against Plasmodium berghei NK65 infected in ICR mouse assessed as parasitemia at 116.4 mg/kg, po qd for 4 days by Diff-Quik staining based microscopic method (reference value: 28.4 +/- 10.2%); conditions: time 4 day
# Plasmodium berghei [10] = experiment: Antimalarial activity against Plasmodium berghei NK65 infected in ICR mouse assessed as reduction in parasitemia at 58.2 mg/kg, po qd for 4 days by Diff-Quik staining based microscopic method (reference value: 0%); conditions: 96 h, time 4 day
# Plasmodium berghei [11] = experiment: Antimalarial activity against Plasmodium berghei NK65 infected in ICR mouse assessed as reduction in parasitemia at 116.4 mg/kg, po qd for 4 days by Diff-Quik staining based microscopic method (reference value: 0%); conditions: 96 h, time 4 day
# Plasmodium berghei [12] = experiment: Antimalarial activity against Plasmodium berghei NK65 infected in ICR mouse assessed as parasitemia at 58.2 mg/kg, po qd for 4 days by Diff-Quik staining based microscopic method (reference value: 28.4 +/- 10.2%); conditions: time 4 day
# Plasmodium berghei [13] = experiment: Antimalarial activity against Plasmodium berghei NK65 infected in ICR mouse assessed as animal mean survival days at 58.2 mg/kg, po qd for 4 days (reference value: 6.2 +/-0.5 day); conditions: time 4 day
# Plasmodium berghei [14] = experiment: Antimalarial activity against Plasmodium berghei NK65 infected in ICR mouse assessed as animal mean survival days at 116.4 mg/kg, po qd for 4 days (reference value: 6.2 +/- 0.5 day); conditions: time 4 day
# Plasmodium berghei [15] = experiment: Antimalarial activity against Plasmodium berghei NK65 infected in ICR mouse assessed as animal mean survival days at 57.2 mg/kg, po qd for 4 days (reference value: 6.2 +/- 0.5 day); conditions: time 4 day
# Plasmodium berghei [16] = experiment: Antimalarial activity against Plasmodium berghei NK65 infected in ICR mouse assessed as reduction in parasitemia at 57.2 mg/kg, po qd for 4 days by Diff-Quik staining based microscopic method (reference value: 0%); conditions: 96 h, time 4 day
# Plasmodium berghei [17] = experiment: Antimalarial activity against Plasmodium berghei NK65 infected in ICR mouse assessed as animal mean survival days at 114.4 mg/kg, po qd for 4 days (reference value: 6.2 +/- 0.5 day); conditions: time 4 day
# Plasmodium berghei [18] = experiment: Antimalarial activity against Plasmodium berghei NK65 infected in ICR mouse assessed as reduction in parasitemia at 114.4 mg/kg, po qd for 4 days by Diff-Quik staining based microscopic method (reference value: 0%); conditions: 96 h, time 4 day
# Plasmodium berghei [19] = experiment: Antimalarial activity against Plasmodium berghei NK65 infected in ICR mouse assessed as parasitemia at 57.2 mg/kg, po qd for 4 days by Diff-Quik staining based microscopic method (reference value: 28.4 +/- 10.2%); conditions: time 4 day
# Plasmodium berghei [20] = experiment: Antimalarial activity against Plasmodium berghei NK65 infected in ICR mouse assessed as parasitemia at 114.4 mg/kg, po qd for 4 days by Diff-Quik staining based microscopic method (reference value: 28.4 +/- 10.2%); conditions: time 4 day
structure (smiles),measurement,setting,value
COc1cc2nc(Nc3ccncc3)nc(Nc3ccccc3C)c2cc1OC.Cl,inhibition in vivo at 54.7 mg/kg,Plasmodium berghei [1],60.8%
same,MSD,Plasmodium berghei [2],7.3 days
COc1cc2nc(N3CCCC3)nc(Nc3ccccc3C)c2cc1OC.Cl,inhibition in vivo at 57.5 mg/kg,Plasmodium berghei [3],53.9%
same,MSD,Plasmodium berghei [4],7 days
same,inhibition in vivo at 115 mg/kg,Plasmodium berghei [5],63.8%
same,MSD,Plasmodium berghei [6],14.5 days
same,Activity,Plasmodium berghei [7],11.6%
same,Activity,Plasmodium berghei [8],14.7%
CCCCNc1nc(N2CCCC2)nc2cc(OC)c(OC)cc12.Cl,Activity,Plasmodium berghei [9],0%
same,inhibition in vivo at 58.2 mg/kg,Plasmodium berghei [10],95.5%
same,inhibition in vivo at 116.4 mg/kg,Plasmodium berghei [11],> 99%
same,Activity,Plasmodium berghei [12],1.5%
same,MSD,Plasmodium berghei [13],17.5 days
same,MSD,Plasmodium berghei [14],11.6 days
COc1cc2nc(N3CCCC3)nc(NC(C)c3ccccc3)c2cc1OC.Cl (stereo not given),MSD,Plasmodium berghei [15],12 days
same,inhibition in vivo at 57.2 mg/kg,Plasmodium berghei [16],92.1%
same,MSD,Plasmodium berghei [17],28.2 days
same,inhibition in vivo at 114.4 mg/kg,Plasmodium berghei [18],> 99%
same,Activity,Plasmodium berghei [19],2%
same,Activity,Plasmodium berghei [20],0%
